# Tested on: not listed separately
# Experiment: Cmax in squirrel monkey at 3 mg/kg
# Format: ADME, organism-based, Saimiri sciureus
# Design: dose 3 mg/kg
# Conditions: in vivo
row,Cmax [µM],Compound
1,41,CC(C)(O)c1ccc(-c2cccc(-c3cc(C(C)(C)S(C)(=O)=O)cc4cccnc34)c2)c[n+]1[O-]

# Tested on: not listed separately
# Experiment: Cmax in squirrel monkey at 10 mg/kg
# Format: ADME, organism-based, Saimiri sciureus
# Design: dose 10 mg/kg
# Conditions: in vivo
row,Cmax [µM],Compound
1,65,"CC(C)(c1cc(-c2cccc(-c3ccc(C4CC4C(=O)O)cc3)c2)c2ncccc2c1)S(C)(=O)=O (single isomer, unassigned)"
2,3.8,Cc1noc(/C(=C/c2cccc(-c3cc(C(C)(C)S(C)(=O)=O)cc4cccnc34)c2)c2ccc(S(C)(=O)=O)cc2)n1

# Tested on: not listed separately
# Experiment: Oral bioavailability in rat
# Format: ADME, organism-based
# Conditions: in vivo
row,Compound,bioavailability [%]
1,CC(C)(c1cc(-c2cccc(-c3ccc(C(=O)O)cc3)c2)c2ncccc2c1)S(C)(=O)=O,54
2,"CC(C)(c1cc(-c2cccc(-c3ccc(C4CC4C(=O)O)cc3)c2)c2ncccc2c1)S(C)(=O)=O (single isomer, unassigned)",100
3,CC(C)(CC(=O)O)c1ccc(-c2cccc(-c3cc(C(C)(C)S(C)(=O)=O)cc4cccnc34)c2)cc1,100
4,CC(C)(c1cc(-c2cccc(-c3ccc(CO)[n+]([O-])c3)c2)c2ncccc2c1)S(C)(=O)=O,10
5,CC(C)(c1cc(-c2cccc(-c3ccc(CC(=O)O)cc3)c2)c2ncccc2c1)S(C)(=O)=O,60
6,CC(C)(c1cc(-c2cccc(-c3ccc(C(=O)NC4CC4)[n+]([O-])c3)c2)c2ncccc2c1)S(C)(=O)=O,100
7,CC(C)NC(=O)Nc1ccc(-c2cccc(-c3cc(C(C)(C)S(C)(=O)=O)cc4cccnc34)c2)c[n+]1[O-],11
8,CC(C)(c1cc(-c2cccc(-c3ccc(CCC(=O)O)cc3)c2)c2ncccc2c1)S(C)(=O)=O,24
9,CC(=O)Nc1ccc(-c2cccc(-c3cc(C(C)(C)S(C)(=O)=O)cc4cccnc34)c2)c[n+]1[O-],47

# More lines, now with the values ahead:
row,bioavailability [%],Compound
1,100,CC(C)(O)c1ccc(-c2cccc(-c3cc(C(C)(C)S(C)(=O)=O)cc4cccnc34)c2)c[n+]1[O-]
2,76,CC(C)(c1cc(-c2cccc(-c3ccc[n+]([O-])c3)c2)c2ncccc2c1)S(C)(=O)=O
3,0,CC(C)(O)c1cc(-c2cccc(-c3cc(C(C)(C)S(C)(=O)=O)cc4cccnc34)c2)c[n+]([O-])c1
4,0,CC(C)(c1cc(-c2cccc(-c3cc(C(=O)NC4CC4)c[n+]([O-])c3)c2)c2ncccc2c1)S(C)(=O)=O
5,83,Cc1ccc(-c2cccc(-c3cc(C(C)(C)S(C)(=O)=O)cc4cccnc34)c2)c[n+]1[O-]

# Tested on: not listed separately
# Experiment: (§1) Half life in rat
# Format: ADME, organism-based
# Conditions: in vivo
row,Compound,half-life [h]
1,CC(C)(c1cc(-c2cccc(-c3ccc(C(=O)O)cc3)c2)c2ncccc2c1)S(C)(=O)=O,2
2,"CC(C)(c1cc(-c2cccc(-c3ccc(C4CC4C(=O)O)cc3)c2)c2ncccc2c1)S(C)(=O)=O (single isomer, unassigned)",2
3,CC(C)(CC(=O)O)c1ccc(-c2cccc(-c3cc(C(C)(C)S(C)(=O)=O)cc4cccnc34)c2)cc1,2
4,CC(C)(c1cc(-c2cccc(-c3ccc(CO)[n+]([O-])c3)c2)c2ncccc2c1)S(C)(=O)=O,1.7
5,CC(C)(c1cc(-c2cccc(-c3ccc(CC(=O)O)cc3)c2)c2ncccc2c1)S(C)(=O)=O,0.3
6,CC(C)(c1cc(-c2cccc(-c3ccc(C(=O)NC4CC4)[n+]([O-])c3)c2)c2ncccc2c1)S(C)(=O)=O,6.5
7,CC(C)NC(=O)Nc1ccc(-c2cccc(-c3cc(C(C)(C)S(C)(=O)=O)cc4cccnc34)c2)c[n+]1[O-],0.7
8,CC(C)(c1cc(-c2cccc(-c3ccc(CCC(=O)O)cc3)c2)c2ncccc2c1)S(C)(=O)=O,1
9,CC(=O)Nc1ccc(-c2cccc(-c3cc(C(C)(C)S(C)(=O)=O)cc4cccnc34)c2)c[n+]1[O-],0.2

# Further lines, results first:
row,half-life [h],Compound
1,1.5,CC(C)(O)c1ccc(-c2cccc(-c3cc(C(C)(C)S(C)(=O)=O)cc4cccnc34)c2)c[n+]1[O-]
2,1.2,CC(C)(c1cc(-c2cccc(-c3ccc[n+]([O-])c3)c2)c2ncccc2c1)S(C)(=O)=O
3,< 1,CC(C)(O)c1cc(-c2cccc(-c3cc(C(C)(C)S(C)(=O)=O)cc4cccnc34)c2)c[n+]([O-])c1
4,< 1,CC(C)(c1cc(-c2cccc(-c3cc(C(=O)NC4CC4)c[n+]([O-])c3)c2)c2ncccc2c1)S(C)(=O)=O
5,1.2,Cc1ccc(-c2cccc(-c3cc(C(C)(C)S(C)(=O)=O)cc4cccnc34)c2)c[n+]1[O-]

# Species: Rattus norvegicus
# Experiment: as §1
# Format: ADME, organism-based
# Conditions: in vivo
row,t1/2 [h],Compound
1,2,"CC(C)(c1cc(-c2cccc(-c3ccc(C4CC4C(=O)O)cc3)c2)c2ncccc2c1)S(C)(=O)=O (single isomer, unassigned; enantiomer A)"

# Reference: ChEMBL document CHEMBL1141472, “Design, synthesis, and biological evaluation of 8-biarylquinolines: a novel class of PDE4 inhibitors” (Bioorg Med Chem Lett, 2008)
